The target in data set [1] is T1, 1,4-dihydroxy-2-naphthoyl-CoA synthase (Mycobacterium tuberculosis, UniProt P9WNP5).
T1 sequence (P9WNP5 whole entry): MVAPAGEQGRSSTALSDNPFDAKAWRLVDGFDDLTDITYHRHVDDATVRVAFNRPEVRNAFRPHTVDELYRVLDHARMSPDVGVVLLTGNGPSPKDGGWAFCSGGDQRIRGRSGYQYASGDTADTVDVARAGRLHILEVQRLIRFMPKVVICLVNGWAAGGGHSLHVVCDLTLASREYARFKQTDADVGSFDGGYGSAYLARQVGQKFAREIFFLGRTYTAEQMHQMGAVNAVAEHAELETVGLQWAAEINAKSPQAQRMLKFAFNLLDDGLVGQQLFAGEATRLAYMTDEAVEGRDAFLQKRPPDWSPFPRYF
As to the kind of experiment: Inhibition of Mycobacterium tuberculosis MenB expressed in Escherichia coli BL21 (DE3) assessed as formation of DHNA-CoA from OSB-CoA by enzyme coupled-assay in presence of Escherichia coli MenE.

Data set [2] has as its target T1, 1,4-dihydroxy-2-naphthoyl-CoA synthase. As to the kind of experiment: Non-competitive inhibition of Mycobacterium tuberculosis MenB expressed in Escherichia coli BL21 (DE3) by Lineweaver-Burk plot analysis.
For data set [3] the target is unchanged. As to the kind of experiment: Inhibition of Mycobacterium tuberculosis MenB expressed in Escherichia coli BL21 (DE3) by Lineweaver-Burk plot analysis.
Data set [4] can be described thus: Chemical stability of the compound at pH 7.4. The conditions noted are these: buffer. The format is physicochemical.
The target of data set [5] is T2, 1,4-dihydroxy-2-naphthoyl-CoA synthase (Mycobacterium tuberculosis) (UniProt P9WNP5).
T2 sequence (whole entry): T1 sequence (P9WNP5 whole entry)
In words: Inhibition of Mycobacterium tuberculosis MenB expressed in Escherichia coli BL21 (DE3) assessed as formation of DHNA-CoA from OSB-CoA at 50 uM by enzyme coupled-assay in presence of Escherichia coli MenE.

The subject of data set [6] is Mycobacterium tuberculosis. In words: Antimycobacterial activity against Mycobacterium tuberculosis H37Rv after 5 to 7 days under […] condition by microplate dilution assay. The format is functional.
In data set [7] the target is T1, 1,4-dihydroxy-2-naphthoyl-CoA synthase. As to the kind of experiment: Inhibition of Mycobacterium tuberculosis MenB expressed in Escherichia coli BL21 (DE3) assessed as formation of DHNA-CoA from OSB-CoA by enzyme coupled-assay in presence of Escherichia coli MenE preincubated for 1 hr.
Data set [8] is described as follows: Half life of the compound at pH 7.4. The format is physicochemical.
The nature of data set [9]: Selectivity index, ratio of cytotoxicity against african green monkey Vero cells to MIC for Mycobacterium tuberculosis H37Rv. The format is functional.
In data set [10] the test system is Mycobacterium tuberculosis. As to the kind of experiment: Antibacterial activity against non-replicating Mycobacterium tuberculosis H37Rv by low oxygen recovery assay. The format is functional.

One may read the IC50 as the midpoint of a concentration-inhibition curve. Broadly, the Ki is the dissociation constant of the complex between target and ligand, obtained from inhibition or displacement. By MIC is commonly meant the lowest concentration that inhibits growth of the organism. As usually defined, the half-life is the time in which the quantity being followed falls by half.

The structures appear in SMILES notation. ≈ marks a conversion by molar mass, not a printed value. Calls of active or inactive are those of the source. The rule behind the calls is not given here. A value given as a limit tells only on which side of the number the result lay.

For the compound `CC(C)(COP(=O)(O)OP(=O)(O)OC[C@H]1O[C@@H](n2cnc3c(N)ncnc32)[C@H](O)[C@@H]1OP(=O)(O)O)[C@@H](O)C(=O)NCCC(=O)NCCSC(CC(=O)c1ccc(Cl)cc1Cl)C(=O)O` (stereo partly drawn), in data set [1], the IC50 worked out at 106 nM. Also, the Ki in [2] turned out to be 286 nM; in data set [3], 49 nM.

Turning to `CC(C(=O)c1ccc(Cl)cc1)C(N[C@@H](C)c1ccccc1)C(=O)O` (stereo partly drawn), in data set [4], the Stability result is listed as “Stable”. Moreover, in data set [5], the inhibition result was “Active”.

As for `COc1ccc(C(=O)CC(SCCNC(=O)CCNC(=O)[C@H](O)C(C)(C)COP(=O)(O)OP(=O)(O)OC[C@H]2O[C@@H](n3cnc4c(N)ncnc43)[C@H](O)[C@@H]2OP(=O)(O)O)C(=O)O)cc1` (stereo partly drawn), the IC50 in [1] was found to be 33500 nM.

In the case of `C[C@H](NC(CC(O)c1ccc(Cl)cc1)C(=O)O)c1ccccc1` (stereo partly drawn), the Stability result in data set [4] is “Stable”. The inhibition entry in data set [5] is “inactive”.

Take `CC(C)(COP(=O)(O)OP(=O)(O)OC[C@H]1O[C@@H](n2cnc3c(N)ncnc32)[C@H](O)[C@@H]1OP(=O)(O)O)[C@@H](O)C(=O)NCCC(=O)NCCSC(CC(=O)c1ccccc1[N+](=O)[O-])C(=O)O` (stereo partly drawn): in data set [1], the IC50 is 154 nM.

In the case of `CC(C)(COP(=O)(O)OP(=O)(O)OC[C@H]1O[C@@H](n2cnc3c(N)ncnc32)[C@H](O)[C@@H]1OP(=O)(O)O)[C@@H](O)C(=O)NCCC(=O)NCCSC(CC(=O)c1ccccc1I)C(=O)O` (stereo partly drawn), the IC50 in [1] was found to be 421 nM.

With `C[C@H](SC(CC(=O)c1ccc(Cl)cc1)C(=O)O)c1ccccc1` (stereo partly drawn), the Stability entry in [4] is reported as “Stable”. Also, the inhibition result in data set [5] is “inactive”.

Take `C[C@H](NC(CC(=O)c1ccccc1C(F)(F)F)C(=O)O)c1ccccc1` (stereo partly drawn): the 50% inhibitory concentration (IC50) was over 120000 nM in [1] and 3.2 µM in data set [7]. This compound also yielded a minimal inhibitory concentration (MIC) in data set [6] of 25 µg/mL (≈ 68.4 µM). The half-life in data set [8] was 12 min.

For the compound `COC(=O)/C=C/C(=O)c1ccc(Cl)cc1`, in data set [9], the “Selectivity Index” value is reported as over 20. Further, the MIC in data set [10] was 1.5 µg/mL (≈ 6.68 µM); in [6] it was 0.64 µg/mL (≈ 2.85 µM).

Regarding `COc1ccccc1C(=O)CC(N[C@@H](C)c1ccccc1)C(=O)O` (stereo partly drawn), the IC50 in data set [1] was over 120000 nM; in data set [7] it was over 120 µM. Also, the MIC in data set [6] is 12.5 µg/mL (≈ 38.2 µM). In [8], the half-life was 696 min.

For `C[C@H](NC(C(=O)O)C(F)(F)C(=O)c1ccc(Cl)cc1)c1ccccc1` (stereo partly drawn), the Stability entry in [4] is given as “Stable”. Besides, in data set [5], the inhibition entry was “inactive”.

Take `C[C@H](NC(CC(=O)c1ccc(Cl)cc1)C(=O)O)c1ccccc1` (stereo partly drawn): the half-inhibitory concentration (IC50) in data set [1] was over 120000 nM; in data set [7] it was 11.7 µM. In addition, the minimal inhibitory concentration (MIC) in data set [6] worked out at 50 µg/mL (≈ 151 µM). The compound further gave a half-life in data set [8] of 408 min.

For the compound `C[C@H](NC(CC(=O)c1ccc(F)cc1)C(=O)O)c1ccccc1` (stereo partly drawn), the IC50 is over 120000 nM in [1] and 14.4 µM in [7]. For the same compound, it took 12.5 µg/mL (≈ 39.6 µM) to inhibit growth in data set [6] (MIC). For the same compound, the half-life in [8] is 732 min.

Turning to `CC(C)(COP(=O)(O)OP(=O)(O)OC[C@H]1O[C@@H](n2cnc3c(N)ncnc32)[C@H](O)[C@@H]1OP(=O)(O)O)[C@@H](O)C(=O)NCCC(=O)NCCSCCC(=O)c1ccc(Cl)cc1Cl`, the IC50 in data set [1] is over 400000 nM.

For `CC(C)(COP(=O)(O)OP(=O)(O)OC[C@H]1O[C@@H](n2cnc3c(N)ncnc32)[C@H](O)[C@@H]1OP(=O)(O)O)[C@@H](O)C(=O)NCCC(=O)NCCSC(CC(=O)c1ccccc1F)C(=O)O` (stereo partly drawn), the IC50 in data set [1] amounted to 204 nM.

On to `CC(C)(COP(=O)(O)OP(=O)(O)OC[C@H]1O[C@@H](n2cnc3c(N)ncnc32)[C@H](O)[C@@H]1OP(=O)(O)O)[C@@H](O)C(=O)NCCC(=O)NCCSC(CC(=O)c1ccccc1Cl)C(=O)O` (stereo partly drawn), for which the 50% inhibitory concentration (IC50) in [1] was determined as 103 nM. In addition, the Ki in [2] is 792 nM; in data set [3], 97 nM.

For the compound `O=C(O)/C=C/C(=O)c1ccc(Cl)cc1`, in data set [6], the MIC was found to be 25 µg/mL (≈ 119 µM).

Take `C[C@H](NC(C(=O)O)C(C)(C)C(=O)c1ccccc1)c1ccccc1` (stereo partly drawn): the Stability result in data set [4] was “Stable”. The inhibition result in data set [5] was “inactive”.

Regarding `O=C(CC1N=C(c2ccccc2)OC1=O)c1ccc(Cl)cc1` (stereo not drawn), the Stability result in [4] is recorded as “Stable”. For the same compound, in data set [5], the inhibition entry was “inactive”.

For the compound `O=C(CC(NC(=O)c1ccccc1)C(=O)O)c1ccc(Cl)cc1` (stereo not drawn), the Stability entry in data set [4] was “Stable”. Moreover, the inhibition entry in data set [5] is “inactive”.

Regarding `CC(C)(COP(=O)(O)OP(=O)(O)OC[C@H]1O[C@@H](n2cnc3c(N)ncnc32)[C@H](O)[C@@H]1OP(=O)(O)O)[C@@H](O)C(=O)NCCC(=O)NCCSC(=O)CCC(=O)c1ccc(Cl)cc1Cl`, the IC50 in data set [1] came out at 2200 nM.

As to `C[C@H](NC(CC(=O)c1ccccc1)C(=O)O)c1ccccc1` (stereo partly drawn), the results for the IC50 in data set [1] and in data set [7] were over 120000 nM and 52.7 µM, respectively. This compound registered an MIC in data set [6] of 6.25 µg/mL (≈ 21 µM). In [8], this compound showed a half-life of 696 min.

Turning to `[2H]C([2H])(C(=O)c1ccccc1Cl)C(N[C@@H](C)c1ccccc1)C(=O)O` (stereo partly drawn), the Stability result in [4] is “Stable”.

On to `CC(C)(COP(=O)(O)OP(=O)(O)OC[C@H]1O[C@@H](n2cnc3c(N)ncnc32)[C@H](O)[C@@H]1OP(=O)(O)O)[C@@H](O)C(=O)NCCC(=O)NCCSC(CC(=O)c1ccc(Cl)cc1)C(=O)O` (stereo partly drawn), for which the half-maximal inhibitory concentration (IC50) in data set [1] came out at 468 nM. Moreover, the Ki in data set [2] was found to be 1630 nM; in data set [3], 350 nM.

Take `COC(=O)/C=C/C(=O)c1ccc(F)cc1`: in data set [9], the “Selectivity Index” value was over 20. The compound also registered an MIC in data set [6] of 0.64 µg/mL (≈ 3.07 µM).

Take `CC(C)(COP(=O)(O)OP(=O)(O)OC[C@H]1O[C@@H](n2cnc3c(N)ncnc32)[C@H](O)[C@@H]1OP(=O)(O)O)[C@@H](O)C(=O)NCCC(=O)NCCSC(CC(=O)c1ccccc1Br)C(=O)O` (stereo partly drawn): the IC50 in data set [1] was 135 nM.

With `CC(C)(COP(=O)(O)OP(=O)(O)OC[C@H]1O[C@@H](n2cnc3c(N)ncnc32)[C@H](O)[C@@H]1OP(=O)(O)O)[C@@H](O)C(=O)NCCC(=O)NCCSC(CC(=O)c1cccc(Cl)c1)C(=O)O` (stereo partly drawn), in [1], the IC50 is 14100 nM.

In the case of `COc1ccccc1C(=O)CC(SCCNC(=O)CCNC(=O)[C@H](O)C(C)(C)COP(=O)(O)OP(=O)(O)OC[C@H]1O[C@@H](n2cnc3c(N)ncnc32)[C@H](O)[C@@H]1OP(=O)(O)O)C(=O)O` (stereo partly drawn), the IC50 in data set [1] turned out to be 12100 nM.

Turning to `C[C@H](NC(CC(=O)c1ccccc1Cl)C(=O)O)c1ccccc1` (stereo partly drawn), the half-maximal inhibitory concentration (IC50) in [1] is over 120000 nM; in data set [7], 8.4 µM. In data set [6], this compound displayed an MIC of 50 µg/mL (≈ 151 µM). The half-life in [8] is 24 min.
